Laboratory results reported in paper PMC12627933, “A First-In-Human Study of the SUMOylation Inhibitor Subasumstat in Patients with Advanced/Metastatic Solid Tumors or Relapsed/Refractory Hematologic Malignancies” (Cancer Research Communications, 2025).
Values joined by “and” are separate entries in the source; they are usually repeats but may differ in a detail not shown here. Equal values may be shown once.

Assay: Safety: treatment-emergent adverse events (NCI CTCAE v5.0; CRS per ASTCT), phase I/II study NCT03648372
Format: in vivo
Method: This study comprised two parts: a phase I dose escalation and a phase II dose expansion (Fig. 1). In the dose-escalation phase, patients were enrolled to receive subasumstat intravenously as a 1-hour (±10 minutes) infusion on days 1, 4, 8, and 11 of a 21-day cycle (biweekly schedule). […] Dose escalation was based on cohort with an adaptive design using Bayesian logistic regression modeling with overdose control. The starting dose of subasumstat was based on Good Laboratory Practice animal toxicity studies and supported by the estimation of a minimum anticipated biologically effective level. A detailed description of dose-limiting toxicities (DLT) is presented in the Supplementary Methods.
The phase II dose-expansion portion enrolled patients to receive the recommended phase II dose (RP2D) determined in phase I, with each cohort assessed separately using an adaptive two-stage design for a single proportion (see Supplementary Methods). For stage 1, each cohort was analyzed when a prespecified number of patients were enrolled and had the potential to have at least one posttreatment scan [i.e., after the first disease assessment, 2 months from cycle 1 day 1 (C1D1)]. If the prespecified minimal response rate was not achieved in the first stage for a given cohort, that cohort would be closed to enrollment. […] The final analysis of the primary endpoints for each cohort would take place when all ongoing patients had the opportunity to complete the 6-month disease assessment. Across both phases, patients received subasumstat for up to 1 year or until confirmed disease progression, unacceptable toxicity, if any withdrawal criterion from the study was met, or if discontinuation of subasumstat occurred.
The occurrence of DLTs was assessed during cycle 1 (DLTs are described in the Supplementary Methods). Treatment-emergent adverse events (TEAE) were graded according to NCI Common Terminology Criteria for Adverse Events version 5.0, except for cytokine release syndrome (CRS), which was graded according to the American Society for Transplantation and Cellular Therapy Consensus Grading for CRS ([20]).
It was anticipated that approximately 70 DLT-evaluable patients would be enrolled for dose escalation. The safety analysis set included all patients who received at least one dose, even if incomplete, of subasumstat. […] The overall response rate (ORR) was defined as the proportion of patients who achieved complete response and partial response (PR) during the study. The disease control rate (DCR) was defined as the proportion of patients who achieved […] as per RECIST v1.1 for solid tumors or Lugano classification for lymphomas. […] Progression-free survival was summarized descriptively using the Kaplan–Meier method.

## Cc1sc(C(=O)c2cncnc2N[C@@H]2C[C@H](COS(N)(=O)=O)[C@@H](O)C2)cc1[C@@H]1NCCc2ccc(Cl)cc21 [subasumstat]
Phase II (n = 25)
  Subasumstat-related TEAE: Nausea: 4 (16.0) n (%)
  Subasumstat-related TEAE: Pyrexia: 9 (36.0) n (%)
  Subasumstat-related TEAE: Vomiting: 1 (4.0) n (%)
  TEAE: Abdominal distension: 1 (4.0) n (%)
  TEAE: Abdominal pain: 4 (16.0) n (%)
  TEAE: Anemia: 7 (28.0) n (%)
  TEAE: Arthralgia: 5 (20.0) n (%)
  TEAE: Back pain: 2 (8.0) n (%)
  TEAE: CRS: 3 (12.0) n (%)
  TEAE: Chills: 8 (32.0) n (%)
  TEAE: Constipation: 2 (8.0) n (%)
  TEAE: Decreased appetite: 5 (20.0) n (%)
  TEAE: Dehydration: 2 (8.0) n (%)
  TEAE: Diarrhea: 10 (40.0) n (%)
  TEAE: Dyspnea: 4 (16.0) n (%)
  TEAE: Fatigue: 9 (36.0) n (%)
  TEAE: Headache: 7 (28.0) n (%)
  TEAE: Hypophosphatemia: 0 n (%)
  TEAE: Insomnia: 2 (8.0) n (%)
  TEAE: Nausea: 4 (16.0) n (%)
  TEAE: Peripheral edema: 2 (8.0) n (%)
  TEAE: Pleural effusion: 3 (12.0) n (%)
  TEAE: Pyrexia: 11 (44.0) n (%)
  TEAE: Stomatitis: 3 (12.0) n (%)
  TEAE: Vomiting: 2 (8.0) n (%)
  TEAEs: 24 (96.0) n (%)
  TEAEs leading to discontinuation: 4 (16.0) n (%)
  TEAEs leading to discontinuation related to subasumstat: 1 (4.0) n (%)
  TEAEs related to subasumstat: 22 (88.0) n (%)
Total (N = 109)
  AESI (adverse event of special interest): 12 (11.0) n (%)
  AESI related to subasumstat: 12 (11.0) n (%)
  AESI: CRS: 12 (11.0) n (%)
  Grade ≥3 TEAE: Abdominal pain: 6 (5.5) n (%)
  Grade ≥3 TEAE: Acute kidney injury: 4 (3.7) n (%)
  Grade ≥3 TEAE: Anemia: 14 (12.8) n (%)
  Grade ≥3 TEAE: Aspartate aminotransferase increased: 2 (1.8) n (%)
  Grade ≥3 TEAE: Blood bilirubin increased: 2 (1.8) n (%)
  Grade ≥3 TEAE: Dyspnea: 4 (3.7) n (%)
  Grade ≥3 TEAE: Fatigue: 5 (4.6) n (%)
  Grade ≥3 TEAE: Hyperbilirubinemia: 2 (1.8) n (%)
  Grade ≥3 TEAE: Hypertension: 2 (1.8) n (%)
  Grade ≥3 TEAE: Hypokalemia: 7 (6.4) n (%)
  Grade ≥3 TEAE: Hypomagnesemia: 2 (1.8) n (%)
  Grade ≥3 TEAE: Hypophosphatemia: 2 (1.8) n (%)
  Grade ≥3 TEAE: Lymphocyte count decreased: 5 (4.6) n (%)
  Grade ≥3 TEAE: Lymphopenia: 2 (1.8) n (%)
  Grade ≥3 TEAE: Muscular weakness: 2 (1.8) n (%)
  Grade ≥3 TEAE: Nausea: 2 (1.8) n (%)
  Grade ≥3 TEAE: Neutropenia: 4 (3.7) n (%)
  Grade ≥3 TEAE: Platelet count increased: 3 (2.8) n (%)
  Grade ≥3 TEAE: Pleural effusion: 2 (1.8) n (%)
  Grade ≥3 TEAE: Pneumonia: 2 (1.8) n (%)
  Grade ≥3 TEAE: Pneumonitis: 2 (1.8) n (%)
  Grade ≥3 TEAE: Pyrexia: 2 (1.8) n (%)
  Grade ≥3 TEAE: Small intestinal obstruction: 4 (3.7) n (%)
  Grade ≥3 TEAE: Thrombocytopenia: 2 (1.8) n (%)
  Grade ≥3 TEAE: Vomiting: 4 (3.7) n (%)
  Grade ≥3 TEAEs: 66 (60.6) n (%)
  Grade ≥3 TEAEs related to subasumstat: 29 (26.6) n (%)
  On-study deaths: 12 (11.0) n (%)
  Patients with at least one grade ≥3 TEAE: 66 (60.6) n (%)
  Serious adverse events: 48 (44.0) n (%)
  Serious adverse events related to subasumstat: 12 (11.0) n (%)
  TEAE: Abdominal distension: 12 (11.0) n (%)
  TEAE: Abdominal pain: 21 (19.3) n (%)
  TEAE: Anemia: 19 (17.4) n (%)
  TEAE: Arthralgia: 17 (15.6) n (%)
  TEAE: Back pain: 14 (12.8) n (%)
  TEAE: CRS: 12 (11.0) n (%)
  TEAE: Chills: 28 (25.7) n (%)
  TEAE: Constipation: 16 (14.7) n (%)
  TEAE: Decreased appetite: 31 (28.4) n (%)
  TEAE: Dehydration: 12 (11.0) n (%)
  TEAE: Diarrhea: 39 (35.8) n (%)
  TEAE: Dyspnea: 26 (23.9) n (%)
  TEAE: Fatigue: 51 (46.8) n (%)
  TEAE: Headache: 37 (33.9) n (%)
  TEAE: Hypophosphatemia: 11 (10.1) n (%)
  TEAE: Insomnia: 13 (11.9) n (%)
  TEAE: Nausea: 45 (41.3) n (%)
  TEAE: Peripheral edema: 17 (15.6) n (%)
  TEAE: Pleural effusion: 12 (11.0) n (%)
  TEAE: Pyrexia: 39 (35.8) n (%)
  TEAE: Stomatitis: 11 (10.1) n (%)
  TEAE: Vomiting: 29 (26.6) n (%)
  TEAEs: 105 (96.3) n (%)
  TEAEs leading to discontinuation: 12 (11.0) n (%)
  TEAEs leading to discontinuation related to subasumstat: 4 (3.7) n (%)
  TEAEs related to subasumstat: 87 (79.8) n (%)
Total (n = 109)
  Grade ≥3 subasumstat-related TEAE: Anemia: 4 (3.7) n (%)
  Grade ≥3 subasumstat-related TEAE: Aspartate aminotransferase increased: 2 (1.8) n (%)
  Grade ≥3 subasumstat-related TEAE: Hypokalemia: 2 (1.8) n (%)
  Grade ≥3 subasumstat-related TEAE: Lymphocyte count decreased: 4 (3.7) n (%)
  Grade ≥3 subasumstat-related TEAE: Muscular weakness: 2 (1.8) n (%)
  Grade ≥3 subasumstat-related TEAE: Neutropenia: 4 (3.7) n (%)
  Grade ≥3 subasumstat-related TEAE: Platelet count increased: 3 (2.8) n (%)
  Grade ≥3 subasumstat-related TEAE: Pneumonitis: 2 (1.8) n (%)
  Grade ≥3 subasumstat-related TEAE: Thrombocytopenia: 2 (1.8) n (%)
  Patients with at least one grade ≥3 subasumstat-related TEAE: 29 (26.6) n (%)
  Subasumstat-related TEAE: Anemia: 8 (7.3) n (%)
  Subasumstat-related TEAE: CRS: 12 (11.0) n (%)
  Subasumstat-related TEAE: Chills: 23 (21.1) n (%)
  Subasumstat-related TEAE: Decreased appetite: 13 (11.9) n (%)
  Subasumstat-related TEAE: Diarrhea: 21 (19.3) n (%)
  Subasumstat-related TEAE: Dyspnea: 6 (5.5) n (%)
  Subasumstat-related TEAE: Fatigue: 34 (31.2) n (%)
  Subasumstat-related TEAE: Headache: 26 (23.9) n (%)
  Subasumstat-related TEAE: Hypokalemia: 7 (6.4) n (%)
  Subasumstat-related TEAE: IRR: 6 (5.5) n (%)
  Subasumstat-related TEAE: Myalgia: 8 (7.3) n (%)
  Subasumstat-related TEAE: Nausea: 33 (30.3) n (%)
  Subasumstat-related TEAE: Pyrexia: 32 (29.4) n (%)
  Subasumstat-related TEAE: Vomiting: 14 (12.8) n (%)
All incidences, most nonserious
  Severity of CRS: grade 1 or 2
All patients (N = 109)
  Discontinuation of subasumstat due to TEAEs: 11%
  Grade ≥3 TEAE abdominal pain: 5.5%
  Grade ≥3 TEAE anemia: 12.8% and 13%
  Grade ≥3 TEAE hypokalemia: 6.4%
  Grade ≥3 TEAEs: 60.6%
  On-study deaths: 11.0%
  On-study deaths related to subasumstat: none
  Subasumstat-related TEAE fatigue: 31.2%
  Subasumstat-related TEAE nausea: 30.3%
  Subasumstat-related TEAE pyrexia: 29.4%
  Subasumstat-related grade ≥3 TEAEs: 26.6%
  Subasumstat-related grade ≥3 anemia: 3.7%
  Subasumstat-related grade ≥3 decreased lymphocyte blood cell count: 3.7%
  Subasumstat-related grade ≥3 decreased platelet count: 2.8%
  Subasumstat-related grade ≥3 neutropenia: 3.7%
  TEAE diarrhea: 36% and 35.8%
  TEAE fatigue: 47% and 46.8%
  TEAE headache: 33.9%
  TEAE nausea: 41% and 41.3%
  TEAE pyrexia: 36% and 35.8%
  TEAEs related to subasumstat: 79.8%
All patients (N = 109), 12 patients, all related to subasumstat
  CRS: 11%
All patients (N = 109), seven patients
  Infusion-related reactions (IRR): 6.4% and 6%
All seven patients with IRR
  Severity of IRR: grade 1 or 2
In vivo
  Dose from which CRS was observed: ≥ 60 mg
Of seven patients with IRR
  IRR deemed related to subasumstat: six
